This is an account of results in patent publication US20260138976A1 (Hoffmann-La Roche Inc., priority 2022, published 2026).

For one test, the system named is primary human T-cells. The test can be described thus: IL2 secretion measurements (24 h, CD3-stimulated T-cells, PBS counter screen). It counts as cell-based. The following applies: for Emax IL2 (% activation): CD3 condition, normalised to DMSO (neutral) and 20 μM reference compound A1 = 100%; for EC50: Homo sapiens, T-cell, CD3-stimulated primary human T-cells, IL2 secretion, fitted sigmoidal curve, read-out: Tcell IL2 CD3 EC50. The method, boiled down: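 IL-2 secretion was measured by ProQuantum or ELISA after 24 h culture of expanded human T-cells with compound, on CD3-antibody-coated plates or PBS counter-screen plates. Dosing used 5–6 points from a 20 or 10 μM final top at 3.333-fold steps in 0.2% DMSO. EC50/Emax were scaled between DMSO and 20 μM reference A1.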

Another test addresses T1, DGK ζ kinase (Homo sapiens, UniProt Q13574).
T1 construct: purchased Reaction Biology Corp. (contract assay service)
The test is described as follows: DGKzeta kinase ADP Glo assay run by Reaction Biology Corp. Type of test: biochemical. The following applies: 2 nM kinase, 50 µM ATP, 500 μM DLG, 10-dose duplicate.

Test [1] concerns the target T2, DGKζ (hDGKzeta(1-928)-N-His) (Homo sapiens, UniProt Q13574).
T2 construct: hDGKzeta(1-928)-N-His; His (N); made in house; host or cells: Sf21 insect cells (baculovirus)
The test can be described thus: In vitro DGK inhibition assay, DGKzeta ADP Glo (in house). It counts as biochemical. The following applies: 2 nM DGKζ, 50 μM ATP, 125 uM DLG in liposomes, 1 hour reaction. In outline: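 ADP-Glo luminescence measured ADP formed over 1 h by Sf21-expressed full-length human enzymes: DGKα at 4 nM with 25 µM ATP, DGKζ at 2 nM with 50 µM ATP, both on 125 µM DLG in PS/PC liposomes. Dose–response used 11 threefold dilutions at 2% final DMSO.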

T1 sequence (Q13574 whole entry): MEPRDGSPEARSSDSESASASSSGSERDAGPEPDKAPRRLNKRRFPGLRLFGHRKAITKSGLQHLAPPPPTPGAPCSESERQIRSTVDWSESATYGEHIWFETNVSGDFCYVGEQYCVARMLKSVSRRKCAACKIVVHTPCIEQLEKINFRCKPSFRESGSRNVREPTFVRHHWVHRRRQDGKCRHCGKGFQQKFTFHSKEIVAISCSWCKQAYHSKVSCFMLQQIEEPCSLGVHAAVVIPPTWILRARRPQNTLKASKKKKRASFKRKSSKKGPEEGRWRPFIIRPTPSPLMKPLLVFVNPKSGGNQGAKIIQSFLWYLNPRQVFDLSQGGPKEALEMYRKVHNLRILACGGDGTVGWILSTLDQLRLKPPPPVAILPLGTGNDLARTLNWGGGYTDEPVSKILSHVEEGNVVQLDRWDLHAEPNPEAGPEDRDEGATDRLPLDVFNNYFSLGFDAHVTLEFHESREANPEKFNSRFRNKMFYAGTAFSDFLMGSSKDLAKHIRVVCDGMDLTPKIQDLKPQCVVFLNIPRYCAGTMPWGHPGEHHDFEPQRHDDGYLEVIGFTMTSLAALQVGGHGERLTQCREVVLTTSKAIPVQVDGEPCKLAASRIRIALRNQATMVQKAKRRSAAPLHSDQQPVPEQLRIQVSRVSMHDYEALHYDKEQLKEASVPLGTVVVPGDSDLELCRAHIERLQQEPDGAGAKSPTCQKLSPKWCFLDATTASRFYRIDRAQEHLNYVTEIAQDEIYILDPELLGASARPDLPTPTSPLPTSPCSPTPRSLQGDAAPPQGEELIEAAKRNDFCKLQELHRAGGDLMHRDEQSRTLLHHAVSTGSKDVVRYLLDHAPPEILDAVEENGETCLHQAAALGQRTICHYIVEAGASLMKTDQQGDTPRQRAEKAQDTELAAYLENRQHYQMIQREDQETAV
T2 sequence (Q13574 whole entry): as above

`Cc1noc(-c2ccc(CN3C(=O)[C@@H](N)CS(=O)(=O)c4ccc(-c5nnc(C(C)(C)C)o5)cc43)cc2)n1` [Example 20, (3R)-3-amino-7-(5-tert-butyl-1,3,4-oxadiazol-2-yl)-5-[[4-(3-methyl-1,2,4-oxadiazol-5-yl)phenyl]methyl]-1,1-dioxo-2,3-dihydro-1λ^6,5-benzothiazepin-4-one]: in the test with primary human T-cells, the “Emax IL2 (% activation)” value is 82 % activation and the EC50 is 7630 nM. The molecule also came in with an IC50 on DGK ζ kinase of 439 nM. In test [1], this molecule showed an IC50 of 1240 nM.

As to `CC(C)(C#N)c1nnc(-c2ccc3c(c2)N(Cc2ccc(-c4ccc(C(F)(F)F)cn4)cc2)C(=O)[C@@H](N)CS3(=O)=O)o1` [Example 47], the “Emax IL2 (% activation)” value in the test with primary human T-cells is listed as 163 % activation. For the same molecule, in the test with primary human T-cells, the EC50 was 670 nM. The IC50 on DGK ζ kinase is 71.3 nM; in test [1], 842 nM.

Regarding `C[C@@](N)(c1nnc(-c2ccc3c(c2)N(Cc2ccc(-c4noc(C(F)(F)F)n4)cc2)C(=O)[C@@H](N)CS3(=O)=O)o1)C(F)(F)F` [Example 52, (3R)-3-amino-7-[5-[(1R)-1-amino-2,2,2-trifluoro-1-methyl-ethyl]-1,3,4-oxadiazol-2-yl]-1,1-dioxo-5-[[4-[5-(trifluoromethyl)-1,2,4-oxadiazol-3-yl]phenyl]methyl]-2,3-dihydro-1λ^6,5-benzothiazepin-4-one], in the test with primary human T-cells, the “Emax IL2 (% activation)” value came to 164 % activation and the EC50 was 645 nM. For the same molecule, the IC50 on DGK ζ kinase turned out to be 101 nM. Further, the IC50 in test [1] was 2320 nM.

With `C[C@@](N)(c1nnc(-c2ccc3c(c2)N(Cc2ccc(-n4ccc(C(F)(F)F)n4)cc2)C(=O)[C@@H](N)CS3(=O)=O)o1)C(F)(F)F` [Example 157, (3R)-3-amino-7-[5-[(1R)-1-amino-2,2,2-trifluoro-1-methyl-ethyl]-1,3,4-oxadiazol-2-yl]-1,1-dioxo-5-[[4-[3-(trifluoromethyl)pyrazol-1-yl]phenyl]methyl]-2,3-dihydro-1λ^6,5-benzothiazepin-4-one], in the test on primary human T-cells, the “Emax IL2 (% activation)” value was determined as 106 % activation and the EC50 stood at 1780 nM. The midpoint of inhibition in test [1], the IC50, lay at 2280 nM.

For `COC(=O)N1CC2CC(c3nnc(-c4ccc5c(c4)N(Cc4ccc(-c6ccc(C(F)(F)F)cn6)cc4)C(=O)[C@@H](N)CS5(=O)=O)o3)(C2)C1` [Example 159, methyl 1-[5-[(3R)-3-amino-1,1,4-trioxo-5-[[4-[5-(trifluoromethyl)-2-pyridyl]phenyl]methyl]-2,3-dihydro-1λ^6,5-benzothiazepin-7-yl]-1,3,4-oxadiazol-2-yl]-3-azabicyclo[3.1.1]heptane-3-carboxylate], in the test with primary human T-cells, the “Emax IL2 (% activation)” value is 188 % activation and the EC50 amounted to 912 nM. Moreover, the IC50 in test [1] was 1350 nM.

For `N[C@H]1CS(=O)(=O)c2ccc(-c3nnc(N4CCC(F)(F)CC4)o3)cc2N(Cc2ccc(-c3nc(C(F)(F)F)no3)cc2)C1=O` [Example 161, (3R)-3-amino-7-[5-(4,4-difluoro-1-piperidyl)-1,3,4-oxadiazol-2-yl]-1,1-dioxo-5-[[4-[3-(trifluoromethyl)-1,2,4-oxadiazol-5-yl]phenyl]methyl]-2,3-dihydro-1λ^6,5-benzothiazepin-4-one], in the test on primary human T-cells, the “Emax IL2 (% activation)” value came out at 150 % activation and the concentration giving a half-maximal response (EC50) came to 3210 nM. Further, half-maximal inhibition in test [1] (IC50) was put at 1920 nM.

With `N#CC1CN(c2nnc(-c3ccc4c(c3)N(Cc3ccc(-c5noc(C(F)(F)F)n5)cc3)C(=O)[C@@H](N)CS4(=O)=O)o2)CCO1` (stereo partly drawn) [Example 163, 4-[5-[(3R)-3-amino-1,1,4-trioxo-5-[[4-[5-(trifluoromethyl)-1,2,4-oxadiazol-3-yl]phenyl]methyl]-2,3-dihydro-1λ^6,5-benzothiazepin-7-yl]-1,3,4-oxadiazol-2-yl]morpholine-2-carbonitrile], in the test on primary human T-cells, the “Emax IL2 (% activation)” value came to 152 % activation and the EC50 was 2390 nM. In addition, in test [1], the IC50 amounted to 10600 nM.

For the molecule `COCC1CN(c2nnc(-c3ccc4c(c3)N(Cc3ccc(-c5noc(C(F)(F)F)n5)cc3)C(=O)[C@@H](N)CS4(=O)=O)o2)CCO1` (stereo partly drawn) [Example 164, (3R)-3-amino-7-[5-[2-(methoxymethyl)morpholin-4-yl]-1,3,4-oxadiazol-2-yl]-1,1-dioxo-5-[[4-[5-(trifluoromethyl)-1,2,4-oxadiazol-3-yl]phenyl]methyl]-2,3-dihydro-1λ^6,5-benzothiazepin-4-one], in the test on primary human T-cells, the “Emax IL2 (% activation)” value came to 156 % activation and the EC50 stood at 3300 nM. For the same molecule, the IC50 in test [1] is 2030 nM.

As to `CC(C)(c1nnc(-c2ccc3c(c2)N(Cc2ccc(-c4noc(C(F)(F)F)n4)cc2)C(=O)[C@@H](N)CS3(=O)=O)o1)C(F)(F)F` [Example 166], in the test on primary human T-cells, the “Emax IL2 (% activation)” value came to 385 % activation and the EC50 was determined as 158 nM. The IC50 in test [1] was 1720 nM.

In the case of `CC(C)(c1nnc(-c2ccc3c(c2)N(Cc2ccc(-c4noc(C5CC5)n4)cc2)C(=O)[C@@H](N)CS3(=O)=O)o1)C(F)(F)F` [Example 167, (3R)-3-amino-5-[[4-(5-cyclopropyl-1,2,4-oxadiazol-3-yl)phenyl]methyl]-1,1-dioxo-7-[5-(2,2,2-trifluoro-1,1-dimethyl-ethyl)-1,3,4-oxadiazol-2-yl]-2,3-dihydro-1λ^6,5-benzothiazepin-4-one], in the test on primary human T-cells, the “Emax IL2 (% activation)” value was 279 % activation and the EC50 is 635 nM. The same molecule registered an IC50 in test [1] of 924 nM.

In the case of `CCC(O)(c1nnc(-c2ccc3c(c2)N(Cc2ccc(-c4noc(C5CC5)n4)cc2)C(=O)[C@@H](N)CS3(=O)=O)o1)C(F)(F)F` (stereo partly drawn) [Example 169], in the test on primary human T-cells, the “Emax IL2 (% activation)” value worked out at 128 % activation and the EC50 is 3170 nM. This molecule returned an IC50 in test [1] of 1770 nM.

Take `CCN1CC(c2nnc(-c3ccc4c(c3)N(Cc3ccc(-c5noc(C(C)(C)C)n5)cc3)C(=O)[C@@H](N)CS4(=O)=O)o2)CC(F)(F)C1` (stereo partly drawn) [Example 181, (3R)-3-amino-5-[[4-(5-tert-butyl-1,2,4-oxadiazol-3-yl)phenyl]methyl]-7-[5-(1-ethyl-5,5-difluoro-3-piperidyl)-1,3,4-oxadiazol-2-yl]-1,1-dioxo-2,3-dihydro-1λ^6,5-benzothiazepin-4-one]: in the test on primary human T-cells, the “Emax IL2 (% activation)” value was 66 % activation and the EC50 is 6890 nM. This molecule gave an IC50 in test [1] of 200 nM.

`COCCN1CC(c2nnc(-c3ccc4c(c3)N(Cc3ccc(-c5noc(C(F)(F)F)n5)cc3)C(=O)[C@@H](N)CS4(=O)=O)o2)CC(F)(F)C1` (stereo partly drawn) [Example 182, (3R)-3-amino-7-[5-[5,5-difluoro-1-(2-methoxyethyl)-3-piperidyl]-1,3,4-oxadiazol-2-yl]-1,1-dioxo-5-[[4-[5-(trifluoromethyl)-1,2,4-oxadiazol-3-yl]phenyl]methyl]-2,3-dihydro-1λ^6,5-benzothiazepin-4-one]: in the test on primary human T-cells, the “Emax IL2 (% activation)” value is 149 % activation and the EC50 came to 3260 nM. In test [1], this molecule displayed an IC50 of 2000 nM.

In the case of `COCCN1CC(c2nnc(-c3ccc4c(c3)N(Cc3ccc(-c5ccc(OC)cc5)cc3)C(=O)[C@@H](N)CS4(=O)=O)o2)CC(F)(F)C1` (stereo partly drawn) [Example 183, (3R)-3-amino-7-[5-[5,5-difluoro-1-(2-methoxyethyl)-3-piperidyl]-1,3,4-oxadiazol-2-yl]-5-[[4-(4-methoxyphenyl)phenyl]methyl]-1,1-dioxo-2,3-dihydro-1λ^6,5-benzothiazepin-4-one], in the test on primary human T-cells, the “Emax IL2 (% activation)” value came out at 69 % activation and the EC50 was determined as 6440 nM. This molecule showed an IC50 in test [1] of 970 nM.
